Test results as given in publication PMC10243163, “A frog‐derived antimicrobial peptide as a potential anti‐biofilm agent in combating Staphylococcus aureus skin infection” (Journal of Cellular and Molecular Medicine, 2023).
Converted amounts (≈) assume the structure as drawn. Like-named read-outs stand apart in the source and are kept apart here. Positions of bridges follow the written chain, without caps; N, C: chain ends. Residues, ends and D or L forms follow the SMILES beside them. No end group written: not given here.

Tests used:
[1] = tested on: S. aureus ATCC 6538; format: cell-based, Staphylococcus aureus
Method: (§1) Antimicrobial assays were conducted using standard broth micro‐dilutions, as mentioned previously.[11] Gram‐positive bacteria S. aureus (ATCC 6538), Methicillin‐resistant S. aureus (MRSA; NCTC 12493), […] (NCTC 12697), Gram‐negative bacteria Escherichia coli (ATCC 8739), Klebsiella pneumoniae (ATCC 43816), Pseudomonas aeruginosa (ATCC 9027), Acinetobacter baumannii (ATCC BAA 747), and yeast, Candida albicans (ATCC 10231) were used in the test. The experiments were conducted in three independent runs.

[2] = tested on: MRSA NCTC 12493; format: cell-based, Methicillin‐resistant S. aureus
Method: as §1

[3] = tested on: E. faecalis NCTC 12697; format: cell-based
[4] = tested on: E. coli ATCC 8739; format: cell-based, Escherichia coli
Method: as §1

[5] = tested on: K. pneumoniae ATCC 43816; format: cell-based, Klebsiella pneumoniae
Method: as §1

[6] = tested on: P. aeruginosa ATCC 9027; format: cell-based, Pseudomonas aeruginosa
Method: as §1

[7] = tested on: C. albicans ATCC 10231; format: cell-based, Candida albicans
Method: as §1

[8] = tested on: Gram‐positive and Gram‐negative test bacteria; format: cell-based
Method: as §1

[9] = tested on: horse erythrocytes; assay: Haemolytic activity; format: cell-based; settings: 128 μM peptide; horse erythrocytes 2% v/v, 37°C, 2 h; 0.1% Triton X‐100 positive control; absorbance 570 nm; three independent runs
Method: The haemolytic activity of peptides was conducted using horse erythrocytes (2%, v/v). Peptide solutions were mixed with washed horse erythrocyte suspension at 37°C for 2 h. Triton X‐100 (0.1%) was used as a positive control. The mixture was then centrifuged at 930 g for 5 min. The absorbance of the supernatants was detected at 570 nm. The haemolysis rate was calculated using the formula: Haemolysis%=Sample group−negative group/positive group−negative group×100%.
This experiment was performed in three independent runs.

[10] = tested on: Gram‐positive and Gram‐negative test bacteria; format: cell-based; settings: geometric mean of MICs against the three Gram‐negative strains
[11] = tested on: S. aureus ATCC 6538; format: cell-based, Staphylococcus aureus; settings: ATCC 6538, 24 h
Method: (§2) Peptide solutions were first mixed with bacterial cultures (5 × 10^5 CFU/mL) and incubated at 37°C for 24 h. The planktonic bacterial cells were gently removed by washing with PBS the next day, and methanol was utilised to fix the biofilm. Crystal violet (0.1% v/v), PBS and acetic acid (30%, v/v) were subsequently used to stain biofilm, remove remaining stains and re‐dissolve stains, respectively. The absorbance was determined at 595 nm. The experiments were conducted in three independent runs.

[12] = tested on: MRSA NCTC 12493; format: cell-based, Methicillin‐resistant S. aureus; settings: NCTC 12493, 24 h
Method: as §2

[13] = tested on: E. faecalis NCTC 12697; format: cell-based; settings: NCTC 12697, 24 h
Method: as §2

[14] = tested on: E. coli ATCC 8739; format: cell-based, Escherichia coli; settings: ATCC 8739, 24 h
Method: as §2

[15] = tested on: P. aeruginosa ATCC 9027; format: cell-based, Pseudomonas aeruginosa; settings: ATCC 9027, 24 h
Method: as §2

[16] = geometric mean of MICs against all test bacteria
[17] = geometric mean of MICs against the three Gram‐positive strains

Molecule | MBC [1] | MIC [1] | MBC [2] | MIC [2] | MBC [3] | MIC [3] | MBC [4] | MIC [4] | MBC [5] | MIC [5] | MBC [6] | MIC [6] | MBC [7] | MIC [7] | GM MIC, total bacteria [8, 16] | GM MIC, G+ [8, 17] | Haemolysis [9] | GM MIC, G− [10] | further results
CC[C@H](C)[C@@H]1NC(=O)[C@H](C)NC(=O)[C@@H](NC(=O)[C@H](CC(C)C)NC(=O)[C@@H](NC(=O)[C@H](CCCCN)NC(=O)[C@@H]2CCCN2C(=O)[C@H](CC(C)C)NC(=O)[C@H](Cc2ccccc2)NC(=O)[C@H](CC(N)=O)NC(=O)[C@H](C)NC(=O)[C@H](C)NC(=O)[C@H](CC(C)C)NC(=O)CNC(=O)[C@H](C)NC(=O)[C@@H](NC(=O)[C@H](CC(C)C)NC(=O)[C@@H]2CCCN2C(=O)[C@@H](N)Cc2ccccc2)[C@@H](C)CC)[C@@H](C)CC)CSSC[C@@H](C(=O)O)NC(=O)[C@H](CCCCN)NC(=O)[C@H](CCCNC(=N)N)NC(=O)[C@H](C)NC1=O [OG9a] (H-FPLIAGLAANFLPKILCAIARKC-OH; disulfide 17-23) | 8 µM (≈ 19.5 µg/mL) | 4 µM (≈ 9.77 µg/mL) | 16 µM (≈ 39.1 µg/mL) | 16 µM (≈ 39.1 µg/mL) | 16 µM (≈ 39.1 µg/mL) | 16 µM (≈ 39.1 µg/mL) | 8 µM (≈ 19.5 µg/mL) | 8 µM (≈ 19.5 µg/mL) | 16 µM (≈ 39.1 µg/mL) | 16 µM (≈ 39.1 µg/mL) | > 128 µM | > 128 µM | > 128 µM | > 128 µM | 20.2 µM | 10.1 µM | 90% | 40.3 µM | 
CC[C@H](C)[C@@H]1NC(=O)[C@H](C)NC(=O)[C@@H](NC(=O)[C@H](CC(C)C)NC(=O)[C@@H](NC(=O)[C@H](CCCCN)NC(=O)[C@@H]2CCCN2C(=O)[C@H](CC(C)C)NC(=O)[C@H](Cc2ccccc2)NC(=O)[C@H](CC(N)=O)NC(=O)[C@H](C)NC(=O)[C@H](CCCCN)NC(=O)[C@H](CC(C)C)NC(=O)CNC(=O)[C@H](C)NC(=O)[C@@H](NC(=O)[C@H](CC(C)C)NC(=O)[C@@H]2CCCN2C(=O)[C@@H](N)Cc2ccccc2)[C@@H](C)CC)[C@@H](C)CC)CSSC[C@@H](C(=O)O)NC(=O)[C@H](CCCCN)NC(=O)[C@H](CCCNC(=N)N)NC(=O)[C@H](C)NC1=O [OG9b] (H-FPLIAGLKANFLPKILCAIARKC-OH; disulfide 17-23) | 128 µM (≈ 320 µg/mL) | 64 µM (≈ 160 µg/mL) | > 128 µM | > 128 µM | > 128 µM | > 128 µM | 8 µM (≈ 20 µg/mL) | 8 µM (≈ 20 µg/mL) | 16 µM (≈ 40 µg/mL) | 16 µM (≈ 40 µg/mL) | 64 µM (≈ 160 µg/mL) | 32 µM (≈ 80 µg/mL) | > 128 µM | > 128 µM | 50.8 µM | 161.3 µM | 50% | 16 µM | 
CC[C@H](C)[C@@H]1NC(=O)CNC(=O)[C@@H](NC(=O)[C@H](CC(C)C)NC(=O)[C@@H](NC(=O)[C@H](CCCCN)NC(=O)[C@@H]2CCCN2C(=O)[C@H](CC(C)C)NC(=O)[C@H](Cc2ccccc2)NC(=O)[C@H](CCCCN)NC(=O)[C@H](C)NC(=O)[C@H](C)NC(=O)[C@H](CC(C)C)NC(=O)[C@H](CCCNC(=N)N)NC(=O)[C@H](C)NC(=O)[C@@H](NC(=O)[C@H](CC(C)C)NC(=O)[C@@H]2CCCN2C(=O)[C@@H](N)Cc2ccccc2)[C@@H](C)CC)[C@@H](C)CC)CSSC[C@@H](C(=O)O)NC(=O)[C@H](CCCCN)NC(=O)[C@H](CC(N)=O)NC(=O)[C@H](C)NC1=O [OG9c] (H-FPLIARLAAKFLPKILCGIANKC-OH; disulfide 17-23) | 4 µM (≈ 10 µg/mL) | 4 µM (≈ 10 µg/mL) | 8 µM (≈ 20 µg/mL) | 8 µM (≈ 20 µg/mL) | 16 µM (≈ 40 µg/mL) | 16 µM (≈ 40 µg/mL) | 4 µM (≈ 10 µg/mL) | 4 µM (≈ 10 µg/mL) | 8 µM (≈ 20 µg/mL) | 8 µM (≈ 20 µg/mL) | 16 µM (≈ 40 µg/mL) | 16 µM (≈ 40 µg/mL) | 64 µM (≈ 160 µg/mL) | 64 µM (≈ 160 µg/mL) |  |  |  |  | GM MIC, G+ [8]: 8/8/8 μM; GM MIC, G− [8]: 8/8/8 μM; GM MIC, total bacteria [8]: 8/8/8 μM
FPLIAGLAANFLPKIL [OG9‐De] | > 128 µM | > 128 µM | > 128 µM | > 128 µM | > 128 µM | > 128 µM | > 128 µM | > 128 µM | > 128 µM | > 128 µM | > 128 µM | > 128 µM | > 128 µM | > 128 µM |  |  | no apparent haemolysis |  | 
FPLIAGLAANFLPKIL-NH2 [OG9‐De‐NH2] | > 128 µM | > 128 µM | > 128 µM | > 128 µM | > 128 µM | > 128 µM | > 128 µM | > 128 µM | > 128 µM | > 128 µM | > 128 µM | > 128 µM | > 128 µM | > 128 µM |  |  | no apparent haemolysis |  | 
FPLIARLAAKFLPKIL [OG9c‐De] | 16 µM | 16 µM | 16 µM | 16 µM | 64 µM | 64 µM | 16 µM | 16 µM | 32 µM | 32 µM | 64 µM | 16 µM | 16 µM | 16 µM |  |  |  |  | GM MIC, G+ [8]: 25.4 µM; GM MIC, G− [8]: 20.2 µM; GM MIC, total bacteria [8]: 22.6 µM
FPLIARLAAKFLPKIL-NH2 [OG9c‐De‐NH2] | 2/2 μM |  | 2 µM | 2 µM | 8 µM | 8 µM | 2 µM | 2 µM | 4 µM | 4 µM | 8 µM | 8 µM | 16 µM | 16 µM | 3.6 µM | 3.2 µM |  | 4 µM | MBIC [11]: 1 µM; MBIC [12]: 1 µM; MBIC [13]: 16 µM; MBIC [14]: 16 µM; MBIC [15]: 64 µM
